According to patent US20230348373A1, “DEUTERATED DERIVATIVES OF 6,8-BIS(BENZYLSULFANYL)OCTANOIC ACID” (Rafael Pharmaceuticals, Inc., priority 2019, published 2023):

Key:
[1] = system: Panc-1 pancreatic cancer cell line; assay: Cell viability (Cell Titer-Glo) in Panc-1 cells; type: cell-based; conditions: Homo sapiens, replete media, 48 h incubation, 24 h recovery; for IC50: first value of IC50/IC90; for IC90: second value of IC50/IC90
Method: (§1) Biological activity was assessed in vitro in the following pancreatic cancer and colorectal cancer cell lines. • Pancreatic cancer cell lines • Panc-1: non-metastatic; mutations: KRAS, TP53 • AsPC-1: metastatic; mutations: KRAS, TP53, CDKN2A, MAP2K4 • Colorectal cancer cell lines • LoVo: metastatic; mutations: APC, KRAS, FBXW7, […] • SW620: metastatic; mutations: KRAS, TP53
(§2) Tumor cells were maintained at 37° C. in a humidified 5% CO2 atmosphere in T75 tissue culture flask containing 10 mL of RPMI 1640 (PANC-1), DMEM (AsPC-1), F12K (LoVo) or L15 (SW620), containing 2 mM L-glutamine, 10% fetal bovine serum (FBS) and 1% penicillin and streptomycin. The tumor cells were split at a ratio of 1:5 every 4-5 days by trypsinization and suspended in fresh medium in a new flask. Cells were harvested for experiments at 80-95% confluency.
(§3) PANC-1 cells in RPMI medium with 10% FBS (12,000 cells/well in 96 well plate) were incubated with increasing concentrations (12.5, 25, 50, 100, 150, and 200 µM), of test compound at 37° C. under 5% CO2 for 48 hours. Cells were undergone for another 24 hr recovery, in fresh RPMI media without serum. Cell viability was assessed using the Promega Cell Titer-Glo assay kit, following their protocol. Cell viability was measured based on the amount of ATP produced by the total number of cells present in each well using FLUOSTAR OPTIMA plate reader in the Luminescence mode. Production of ATP in Luminescence unit is directly proportional to the number of live cells. % live cells were calculated and SEM was also calculated as average of 3 replica wells.

[2] = system: LoVo colorectal cancer cell line; assay: Cell viability (Cell Titer-Glo) in LoVo cells; type: cell-based; conditions: Homo sapiens, replete media, 48 h incubation, 24 h recovery; for IC50: first value of IC50/IC90; for IC90: second value of IC50/IC90
Method: as §1, §2, §3
(§4) Test compounds were screened for activity in AsPC-1 cells and the colon cancer cells using similar procedures but replacing RPMI with the respective media indicated above for the initial 48 hour incubation (i.e., DMEM (AsPC-1), F12K ( LoVo ), or L15 (SW620)), and RPMI was always used for the 24 hour recovery. Cells seeded for AsPc-1 (25,000 cells/well), LoVo (25,000 cells/well) and SW620 (25,000 cells/well) to achieve ~ 50% confluency after 24 hrs of seeding.

[3] = after IV dosing; Pardee et al. 2014; cited from earlier work
[4] = system: SW620 colorectal cancer cell line; assay: Cell viability (Cell Titer-Glo) in SW620 cells; type: cell-based; conditions: Homo sapiens, SW-620, replete media, 48 h incubation, 24 h recovery; for IC50: first value of IC50/IC90
Method: as §1, §2, §3, §4

[5] = system: AsPC-1 pancreatic cancer cell line; assay: Cell viability (Cell Titer-Glo) in AsPC-1 cells; type: cell-based; conditions: Homo sapiens, ASPC1, replete media, 48 h incubation, 24 h recovery; for IC50: first value of IC50/IC90
Method: as §1, §2, §3, §4

Row | SMILES | IC50 [1] [µM] | IC90 [1] [µM] | IC50 [2] [µM] | IC90 [2] [µM] | half-life [3] [h] | IC50 [4] [µM] | IC90 ([4]; second value of IC50/IC90) [µM] | IC50 [5] [µM] | IC90 ([5]; second value of IC50/IC90) [µM]
1 | [2H]C(O)(CCC(CCSCc1ccccc1)SCc1ccccc1)CC(=O)N1CCNCC1 (centres unmarked) [Compound I-79] | 44 | 282 | 181 | 254 | – | – | – | – | –
2 | [2H]C([2H])(CC(=O)O)C([2H])([2H])CC(CCSCc1ccccc1)SCc1ccccc1 (centres unmarked) [Compound I-24, 6,8-bis(benzylsulfanyl)-3,3,4,4-tetradeuterio-octanoic acid] | > 300 | – | > 300 | – | – | – | – | – | –
3 | O=C(O)CCCCC(CCSCc1ccccc1)SCc1ccccc1 (centres unmarked) [CPI-613, 6,8-bis(benzylsulfanyl)octanoic acid] | – | – | – | – | 1 to 2 | – | – | – | –
4 | [2H]C(O)(CCC(CCSCc1ccccc1)SCc1ccccc1)CC(N)=O (centres unmarked) [Compound I-78] | – | 73 | 26 | 39 | – | 28 | 37 | 28 | 65
5 | [2H]C(O)(CCC(CCSCc1ccccc1)SCc1ccccc1)CC(=O)O (centres unmarked) [Compound I-77] | > 300 | – | > 300 | – | – | > 300 | – | 314 | –
6 | [2H]C([2H])(CCC(CCSCc1ccccc1)SCc1ccccc1)CC(=O)O (centres unmarked) [Compound I-10, 6,8-bis(benzylsulfanyl)-3,3-dideuterio-octanoic acid] | > 300 | – | > 300 | – | – | – | – | – | –
